Data: ChEMBL document CHEMBL4819004, “Discovery of selective CDK9 degraders with enhancing antiproliferative activity through PROTAC conversion” (Eur J Med Chem, 2021)

Assays:
[1] = molecular target: CDK9/cyclin T1 (Homo sapiens, UniProt P50750); assay: Inhibition of CDK9/cyclin T (unknown origin) using YSPTSPSYSPTSPSYSPTSPKKK or histone H1 as substrate incubated for 2 hrs in presence of [gamma-33P]ATP by radioactive filter binding assay; type: protein-complex assay
[2] = system: MV4-11; assay: Antiproliferative activity against human MV4-11 cells incubated for 72 hrs by MTT assay; type: functional, cell-based; settings: MV4-11, 72 h
[3] = system: MOLM-13; assay: Antiproliferative activity against human MOLM-13 cells incubated for 72 hrs by MTT assay; type: functional, cell-based; settings: MOLM-13, 72 h
[4] = system: HCT-116; assay: Antiproliferative activity against human HCT-116 cells incubated for 72 hrs by MTT assay; type: functional, cell-based; settings: HCT-116, 72 h
[5] = system: B16; assay: Antiproliferative activity against mouse B16 cells incubated for 72 hrs by MTT assay; type: functional, cell-based; settings: B16, 72 h
[6] = system: A549; assay: Antiproliferative activity against human A549 cells incubated for 72 hrs by MTT assay; type: functional, cell-based; settings: A549, 72 h
[7] = system: HepG2; assay: Antiproliferative activity against human HepG2 cells incubated for 72 hrs by MTT assay; type: functional, cell-based; settings: HepG2, 72 h
[8] = system: MCF7; assay: Antiproliferative activity against human MCF7 cells incubated for 72 hrs by MTT assay; type: functional, cell-based; settings: MCF7, 72 h
[9] = molecular target: T1, Protein cereblon/Cyclin-dependent kinase 9 (Homo sapiens, UniProt P50750+Q96SW2); assay: Protac activity at CRBN/CDK9 in human MV4-11 cells assessed as CDK9 degradation rate at 500 nM incubated for 6 hrs by Western blot assay relative to control; type: cell-based
Target sequence in this assay (P50750 whole entry, looked up): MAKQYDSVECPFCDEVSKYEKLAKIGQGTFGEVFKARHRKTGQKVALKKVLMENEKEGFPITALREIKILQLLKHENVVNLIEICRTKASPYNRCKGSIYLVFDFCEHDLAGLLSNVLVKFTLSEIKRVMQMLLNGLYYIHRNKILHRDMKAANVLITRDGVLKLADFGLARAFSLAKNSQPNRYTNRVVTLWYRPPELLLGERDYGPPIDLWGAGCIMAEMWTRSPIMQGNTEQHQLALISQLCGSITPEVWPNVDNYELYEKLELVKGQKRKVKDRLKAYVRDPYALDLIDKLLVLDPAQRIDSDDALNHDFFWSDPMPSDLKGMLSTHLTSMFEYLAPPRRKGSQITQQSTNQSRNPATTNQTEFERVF
Target sequence in this assay (Q96SW2 whole entry, looked up): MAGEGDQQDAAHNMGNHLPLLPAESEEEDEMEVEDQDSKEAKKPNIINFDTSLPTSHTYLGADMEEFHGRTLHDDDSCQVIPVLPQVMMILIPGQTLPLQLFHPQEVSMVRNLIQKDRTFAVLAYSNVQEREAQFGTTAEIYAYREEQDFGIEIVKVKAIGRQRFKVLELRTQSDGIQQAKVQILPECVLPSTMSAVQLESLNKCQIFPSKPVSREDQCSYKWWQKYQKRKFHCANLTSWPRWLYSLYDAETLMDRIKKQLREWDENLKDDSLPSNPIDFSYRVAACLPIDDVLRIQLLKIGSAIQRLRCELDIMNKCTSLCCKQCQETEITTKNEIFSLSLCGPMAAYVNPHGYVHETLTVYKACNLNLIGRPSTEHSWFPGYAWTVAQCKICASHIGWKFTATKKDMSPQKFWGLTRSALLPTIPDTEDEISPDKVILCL

[10] = molecular target: T1, Protein cereblon/Cyclin-dependent kinase 9; assay: Protac activity at CRBN/CDK9 in human MOLM-13 cells assessed as CDK9 degradation rate at 500 nM incubated for 6 hrs by Western blot assay relative to control; type: cell-based
Target sequence in this assay (P50750 whole entry, looked up): as the sequence (P50750 whole entry, looked up) above
Target sequence in this assay (Q96SW2 whole entry, looked up): as the sequence (Q96SW2 whole entry, looked up) above

[11] = molecular target: T1, Protein cereblon/Cyclin-dependent kinase 9; assay: Protac activity at CRBN/CDK9 in human MV4-11 cells assessed as induction of CDK9 degradation incubated for 6 hrs by Western blot assay; type: cell-based
Target sequence in this assay (P50750 whole entry): as the sequence (P50750 whole entry, looked up) above
Target sequence in this assay (Q96SW2 whole entry): as the sequence (Q96SW2 whole entry, looked up) above

[12] = system: MV4-11; assay: Induction of apoptosis in human MV4-11 cells assessed as total apoptotic cells at 500 nM after 6 hrs by AnnexinV-FITC/propidium iodide staining based flow cytometry (reference value: 9.75 %); type: functional
[13] = system: MV4-11; assay: Induction of apoptosis in human MV4-11 cells assessed as viable cells at 500 nM after 6 hrs by AnnexinV-FITC/propidium iodide staining based flow cytometry (reference value: 90.1 %); type: functional; settings: read-out: Activity
[14] = system: MV4-11; assay: Induction of apoptosis in human MV4-11 cells assessed as early apoptotic cells at 500 nM after 6 hrs by AnnexinV-FITC/propidium iodide staining based flow cytometry (reference value: 5.36 %); type: functional
[15] = system: MV4-11; assay: Induction of apoptosis in human MV4-11 cells assessed as late apoptotic cells at 500 nM after 6 hrs by AnnexinV-FITC/propidium iodide staining based flow cytometry (reference value: 4.29%); type: functional
[16] = system: MV4-11; assay: Induction of apoptosis in human MV4-11 cells assessed as necrotic cells at 500 nM after 6 hrs by AnnexinV-FITC/propidium iodide staining based flow cytometry (reference value: 0.16 %); type: functional

Chain of CDK9/cyclin T1 (O60563 whole entry): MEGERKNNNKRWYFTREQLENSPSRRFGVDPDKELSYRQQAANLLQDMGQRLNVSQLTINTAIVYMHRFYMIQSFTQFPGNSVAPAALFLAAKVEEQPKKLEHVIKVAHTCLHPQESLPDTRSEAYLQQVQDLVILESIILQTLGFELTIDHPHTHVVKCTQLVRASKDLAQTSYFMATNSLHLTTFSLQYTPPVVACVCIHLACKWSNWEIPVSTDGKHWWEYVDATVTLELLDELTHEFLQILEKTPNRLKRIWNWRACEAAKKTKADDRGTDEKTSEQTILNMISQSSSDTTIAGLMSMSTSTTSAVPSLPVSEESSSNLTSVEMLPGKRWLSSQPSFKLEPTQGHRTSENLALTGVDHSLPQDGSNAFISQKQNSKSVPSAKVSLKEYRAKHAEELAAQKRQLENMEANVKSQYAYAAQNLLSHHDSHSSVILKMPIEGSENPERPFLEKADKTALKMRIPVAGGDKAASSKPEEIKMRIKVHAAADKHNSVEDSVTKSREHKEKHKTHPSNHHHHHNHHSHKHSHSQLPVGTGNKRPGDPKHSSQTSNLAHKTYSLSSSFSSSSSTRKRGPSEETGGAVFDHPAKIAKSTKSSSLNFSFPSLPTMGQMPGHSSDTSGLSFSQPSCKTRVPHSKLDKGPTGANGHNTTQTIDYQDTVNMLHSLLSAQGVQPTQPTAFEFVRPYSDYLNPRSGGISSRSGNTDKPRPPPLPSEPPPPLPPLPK
Chain of CDK9/cyclin T1 (P50750 whole entry): as the sequence (P50750 whole entry, looked up) above

| Compound | IC50 [1] [µM] | IC50 [2] [µM] | IC50 [3] [µM] | IC50 [4] [µM] | IC50 [5] [µM] | IC50 [6] [µM] | IC50 [7] [µM] | IC50 [8] [µM] | Activity [9] [%] | Activity [10] [%] | DC50 [11] [µM] | Activity [12] [%] | viability at 0.5 µM [13] [%] | Activity [14] [%] | Activity [15] [%] | Activity [16] [%] |
| --- | --- | --- | --- | --- | --- | --- | --- | --- | --- | --- | --- | --- | --- | --- | --- | --- |
| COc1cc(F)ccc1-c1ncnc(Nc2cccc(CS(C)(=O)=NC(=O)CCCCCC(=O)NCCCCCNc3cccc4c3C(=O)N(C3CCC(=O)NC3=O)C4=O)c2)n1 (configuration not stated) | 0.0139 | 0.45 | 0.47 | 1.42 | 3.5 | 11.9 | 4.15 | 8.02 | 95 | 65 | – | – | – | – | – | – |
| COc1cc(F)ccc1-c1ncnc(Nc2cccc(CS(C)(=O)=NC(=O)CCC(=O)CCC(=O)NCCNc3cccc4c3C(=O)N(C3CCC(=O)NC3=O)C4=O)c2)n1 (configuration not stated) | 0.0102 | 0.07 | 0.13 | 3 | 1.75 | 3.21 | 3.36 | 5.18 | 98 | 98 | – | – | – | – | – | – |
| COc1cc(N2CCN(CCCCCCCC(=O)NCCNc3cccc4c3C(=O)N(C3CCC(=O)NC3=O)C4=O)CC2)ccc1-c1ncnc(Nc2cccc(CS(C)(=N)=O)c2)n1 (configuration not stated) | 6.87 | 4.9 | > 50 | > 50 | > 50 | > 50 | > 50 | > 50 | 33 | 23 | – | – | – | – | – | – |
| COc1cc(F)ccc1-c1ncnc(Nc2cccc(CS(C)(=O)=NC(=O)CCCCCCCCCC(=O)NCCNc3cccc4c3C(=O)N(C3CCC(=O)NC3=O)C4=O)c2)n1 (configuration not stated) | 0.0107 | 0.039 | 0.38 | 3.23 | 1.72 | 2.28 | 8.61 | 4.79 | 100 | 99 | 0.0312 | – | – | – | – | – |
| COc1cc(F)ccc1-c1ncnc(Nc2cccc(CS(C)(=O)=NC(=O)CCc3cn(CCCCCCCC(=O)NCCNc4cccc5c4C(=O)N(C4CCC(=O)NC4=O)C5=O)nn3)c2)n1 (configuration not stated) | 0.00925 | 0.18 | 0.2 | 5.51 | 3.07 | 4.14 | 4.65 | 11.4 | 100 | 100 | 0.0103 | – | – | – | – | – |
| COc1cc(N2CCN(CCCCCC(=O)NCCNc3cccc4c3C(=O)N(C3CCC(=O)NC3=O)C4=O)CC2)ccc1-c1ncnc(Nc2cccc(CS(C)(=N)=O)c2)n1 (configuration not stated) | 8.11 | 7.71 | > 50 | > 50 | > 50 | > 50 | > 50 | > 50 | 62 | 24 | – | – | – | – | – | – |
| COc1cc(F)ccc1-c1ncnc(Nc2cccc(CS(C)(=O)=NC(=O)COCCOCCOCC(=O)NCCCCCNc3cccc4c3C(=O)N(C3CCC(=O)NC3=O)C4=O)c2)n1 (configuration not stated) | 0.00935 | 0.25 | 0.48 | 3.1 | 3.35 | 6.15 | 8.51 | 10.2 | 100 | 99 | – | – | – | – | – | – |
| COc1cc(N2CCN(CCCCCCCCCC(=O)NCCNc3cccc4c3C(=O)N(C3CCC(=O)NC3=O)C4=O)CC2)ccc1-c1ncnc(Nc2cccc(CS(C)(=N)=O)c2)n1 (configuration not stated) | 6.34 | 2.6 | > 50 | > 50 | > 50 | > 50 | > 50 | > 50 | 44 | 49 | – | – | – | – | – | – |
| COc1cc(F)ccc1-c1ncnc(Nc2cccc(CS(C)(=O)=NC(=O)CCCCCC(=O)NCCNc3cccc4c3C(=O)N(C3CCC(=O)NC3=O)C4=O)c2)n1 (configuration not stated) | 0.0144 | 0.18 | 1.11 | 8.04 | 6.68 | 1.44 | 16.4 | 5.34 | 88.8 | 66 | – | – | – | – | – | – |
| COc1cc(F)ccc1-c1ncnc(Nc2cccc(CS(C)(=O)=NC(=O)CCc3cn(CCCCCC(=O)NCCNc4cccc5c4C(=O)N(C4CCC(=O)NC4=O)C5=O)nn3)c2)n1 (configuration not stated) | 0.0114 | 0.72 | 0.99 | 16.4 | 16.2 | 8.35 | 10.3 | 24.5 | 88.8 | 66 | – | – | – | – | – | – |
| COc1cc(F)ccc1-c1ncnc(Nc2cccc(C[S@](C)(=N)=O)c2)n1 [ATUVECICLIB] | – | 0.56 | 0.2 | 2.94 | 1.47 | 3.29 | 2.7 | 5.52 | 0 | 0 | – | 21.1 | 78.6 | 4.99 | 15.7 | 0.26 |
| COc1cc(F)ccc1-c1ncnc(Nc2cccc(CS(C)(=O)=NC(=O)CCCC(=O)NCCNc3cccc4c3C(=O)N(C3CCC(=O)NC3=O)C4=O)c2)n1 (configuration not stated) | 0.0127 | 0.46 | 2.8 | 20.6 | 22.1 | 35.6 | 19.1 | 24.8 | 100 | 99 | 0.0273 | – | – | – | – | – |
| COc1cc(F)ccc1-c1ncnc(Nc2cccc(CS(C)(=O)=NC(=O)COCCOCCOCC(=O)NCCNc3cccc4c3C(=O)N(C3CCC(=O)NC3=O)C4=O)c2)n1 (configuration not stated) | 0.0149 | 0.27 | 0.65 | 12.2 | 18.4 | 13.2 | 17.5 | 20.8 | 51 | 0 | – | – | – | – | – | – |
| COc1cc(F)ccc1-c1ncnc(Nc2cccc(CS(C)(=O)=NC(=O)CCC(=O)CCC(=O)NCCCCCNc3cccc4c3C(=O)N(C3CCC(=O)NC3=O)C4=O)c2)n1 (configuration not stated) | 0.0857 | 1.1 | 0.74 | 4.77 | 8.64 | 11.1 | 8.58 | 15.5 | 67 | 45 | – | – | – | – | – | – |
| COc1cc(N2CCN(CCCCCCC(=O)NCCNc3cccc4c3C(=O)N(C3CCC(=O)NC3=O)C4=O)CC2)ccc1-c1ncnc(Nc2cccc(CS(C)(=N)=O)c2)n1 (configuration not stated) | 6.56 | 3.8 | > 50 | > 50 | > 50 | > 50 | > 50 | > 50 | 52 | 7 | – | – | – | – | – | – |
